Assay: HT3 cells were treated for three days with increasing concentrations of PMPG-diisopropyloxy ester ranging from 0.2 μM to 20 μM. Cells (HT3 RPMI+10% PBS) were incubated with compound for 24 hr after which PSTS primer (phosphorothioate-d(AATCCGTCGAGCAGAGTT (SEQ ID NO: 6) containing a 5′ Cy-5 label) (7.5 μM) and fresh compound are added for an additional 24 hr. Cells were lysed and endogenous telomerase inactivated by heating (15 min, 75° C.). Products were amplified by 30 cycles of PCR under TRAP conditions set forth above and quantified.
Settings: HT-3

| EC50 | SMILES |
| --- | --- |
| 10.8 µM | C=C(COCP(=O)(OCOC(=O)OC(C)C)OCOC(=O)OC(C)C)Cn1cnc2c(=O)[nH]c(N)nc21 |
| 2.15 µM | CC(C)OC(=O)OCOP(=O)(COC(C)Cn1cnc2c(=O)[nH]c(N)nc21)OCOC(=O)OC(C)C (configuration not stated) |

From ChEMBL document CHEMBL5725651, “Guanine analogs as telomerase substrates and telomere length affectors” (2018)
